Experimental data reported in US8816078B2, “Acidic gas removal by aqueous amine solvents” (Board of Regents, The University of Texas System, priority 2010, dated 2014).

Legend:
[1] = CO2 absorption/desorption rate (liquid film mass transfer coefficient kg′) in the wetted wall column; format: physicochemical
Excerpt: The CO2 absorption rate of a particular amine may be useful in determining whether an amine is desirable for acidic gas removal. In general, a greater rate of CO2 absorption will allow for the use of less packing, reduced lean loading, or greater rich loading, which in turn can reduce energy consumption. The rate of CO2 absorption can be characterized as the normalized flux, kg′ (gmol/m^2-s-Pa), measured in a model contactor such as a wetted wall column. Similarly, a greater heat of CO2 desorption will reduce the energy requirement of an absorber/stripper relying upon temperature swing regeneration.
(§1) VLE models of CO2 partial pressure were regressed from experimental data to calculate CO2 capacity and enthalpy of CO2 absorption (ΔHabs). […] MPZ and PZ-MPZ both have a slightly higher capacity than PZ. PZ-MPZ absorbs CO2 at a slightly slower rate than 8 m PZ at rich loading, about 50% faster than 7 m MEA. kg′ for MPZ is the same to 7 m MEA. Heat of CO2 absorption for PZ-MPZ (ΔHabs=70 kJ/mol) and MPZ (72 kJ/mol) is close to that for PZ (70 kJ/mol).
In FIG. 5, absorption/desorption rates for PZ-MPZ at 40° C., 60° C., 80° C. and 100° C. are compared with that of 7 m MEA and 8 m PZ at 40° C.
In FIG. 13 and FIG. 14, absorption/desorption rates for 1-MPZ and the PZ blend at 40° C., 60° C., 80° C. and 100° C. are compared with that of 7 m MEA and 8 m PZ at 40° C.

[2] = CO2 solubility (CO2 partial pressure) measured in the wetted wall column; format: physicochemical
Excerpt: as §1
CO2 solubility for PZ-MPZ and MPZ are shown in FIG. 3 and FIG. 4, respectively. The filled points are experimental data at varied loadings and temperatures. Parameters for the following semi-empirical VLE equation (Equation 3) were regressed and the model was presented as solid curves in the figures. The curves fit the points satisfactorily. ln P=a+b/T+c·α+d·α/T+e·α^2 Eqn. 3
CO2 solubility for 1-MPZ and the PZ blend are shown in FIG. 11 and FIG. 12 respectively. The filled points are experimental data at varied loadings and temperatures. Parameters for the following semi-empirical VLE equation ln P=a+b/T+c·α+d·α/T+e·α^2 (Eqn. 3) were regressed and the model was presented as curves in the figures. α is the CO2 loading defined as nCO2/nalka. The curves fit the points satisfactorily.

[3] = Solubility and solids precipitation limits of amines in water; format: physicochemical
[4] = Cyclic CO2 capacity calculated from the regressed VLE model; format: physicochemical; conditions: for CO2 Capacity: Conc. (m): MDEA/PZ 7/2, PZ 8, MEA 7, HEP 7.7, AEP 6, 2-PE 8, AMP 4.8, EDA 12, DGA 10, PZ-MPZ 4/4, MPZ 8
[5] = Thermal degradation in sealed stainless steel cylinders at 150° C., loss of original amine over time; format: physicochemical; conditions: 8 m 1-MPZ, end of the experiment (30 weeks)
Experimental: Samples of each solution were contained in stainless steel, well-sealed cylinders and placed in a forced-convection oven for extended periods of time. The loss of the original amine is tracked over time to determine the rate of thermal degradation.
The thermal degradation of 8 m 1-MPZ at 150° C. was studied. The main degradation products are PZ, 1,4-DMPZ, formyl amides, and formate.
The thermal degradation of a blend of 4 m PZ and 4 m 1-MPZ at 150° C. was previously studied. […] Based on the results of the 8 m 1-MPZ experiment discussed above, 1,4-DMPZ was expected to be produced as a degradation product.
Solutions with varying compositions were placed in thermal cylinders at 150° C. for up to 15 weeks. At this temperature, some degradation will occur, but the conversion between PZ, 1-MPZ, and 1,4-DMPZ should be able to be observed. Three starting solutions were used: 5 m PZ+2 m 1-MPZ+1 m 1,4-DMPZ (5/2/1), 5 m PZ+2.5 m 1-MPZ+0.5 m 1,4-DMPZ (5/2.5/0.5), and 5 m PZ+1.5 m 1-MPZ+[…]. To establish the blend concentrations, it was originally hypothesized that the equilibrium concentration would be 5/2/1. Therefore, that blend, as well as two blends with increased or decreased 1-MPZ concentrations were used and the concentration of 1,4-DMPZ was adjusted to maintain a total concentration of 8 m.

[6] = 298K; cited from earlier work
[7] = Solubility measurements of CO2 loaded PZ/1-MPZ/1,4-DMPZ blends; format: physicochemical
Experimental: Solubility measurements for CO2 loaded 3.9 m PZ/3.9 m 1-MPZ/0.2 m 1,4-DMPZ and 3.75 m PZ/3.75 m 1-MPZ/0.5 m 1,4-DMPZ solutions were taken to predict the solubility envelope of these blends. The solubility of the blends at varying loadings and temperatures are shown in FIG. 7 for the 3.9 m PZ/3.9 m 1-MPZ/0.2 m 1,4-DMPZ blend and in FIG. 8 for the 3.75 m PZ/3.75 m 1-MPZ/0.5 m 1,4-DMPZ blend. […] At 0° C., the 8 m blend: 3.75 m PZ/3.75 m 1-MPZ/0.5 m […] was soluble at 2° C. with a lean loading of 0.17 mol CO2/mol alkalinity, in contrast to 8 m PZ, which must be operated at loading above 0.3 to avoid solids precipitation.
A maximum CO2 loading of 0.41 and 0.39 was obtained for the 3.9 m PZ/3.9 m 1-MPZ/0.2 m 1,4-DMPZ blend and the 3.75 m PZ/3.75 m 1-MPZ/0.5 m 1,4 DMPZ blend respectively at room temperature without any solid precipitation. Intermediary loaded solutions were prepared by appropriately mixing the rich loaded and zero loaded solutions and observed at temperatures between 0° C. and the melting point of the solution.

[8] = Heat of CO2 absorption calculated from the VLE model; format: physicochemical; conditions: for ΔHabs@PCO2 = 1.5 kPa: Conc. (m): MDEA/PZ 7/2, PZ 8, MEA 7, HEP 7.7, AEP 6, 2-PE 8, AMP 4.8, EDA 12, DGA 10, PZ-MPZ 4/4, MPZ 8
Experimental: VLE models of CO2 partial pressure were regressed from experimental data to calculate CO2 capacity and enthalpy of CO2 absorption (ΔHabs).
Heat of absorption was calculated from the model mentioned above by applying the following thermodynamic equation: […]
Heat of absorption was calculated from the model mentioned above by applying the Gibbs-Helmholtz equation: […]
The heat absorption of CO2 at a 1.5 kPa, which is an average CO2 partial pressure for lean and rich solutions, was calculated.

[9] = ambient temperature; cited from earlier work

CN1CCNCC1 [1-MPZ, 1-methyl piperazine]
absorption/desorption rate compared with 8 m PZ and 7 m MEA ([1]; 0.5 kPa to 5 kPa CO2 partial pressure, comparators at 40° C.): nearly the same as 8 m PZ and much higher than 7 m MEA
PCO2 ([2]; Temp 40° C., CO2 Loading 0.10 mol/mol alka, 8 m 1-MPZ): 0.10 kPa
PCO2 ([2]; Temp 40° C., CO2 Loading 0.20 mol/mol alka, 8 m 1-MPZ): 1.32 kPa
PCO2 ([2]; Temp 40° C., CO2 Loading 0.26 mol/mol alka, 8 m 1-MPZ): 5.55 kPa
PCO2 ([2]; Temp 40° C., CO2 Loading […] alka, 8 m 1-MPZ): 0.35 kPa
PCO2 ([2]; Temp 60° C., CO2 Loading 0.10 mol/mol alka, 8 m 1-MPZ): 0.62 kPa
PCO2 ([2]; Temp 60° C., CO2 Loading 0.20 mol/mol alka, 8 m 1-MPZ): 6.41 kPa
PCO2 ([2]; Temp 60° C., CO2 Loading 0.26 mol/mol alka, 8 m 1-MPZ): 22.95 kPa
PCO2 ([2]; Temp 60° C., CO2 Loading […] alka, 8 m 1-MPZ): 2.15 kPa
PCO2 ([2]; Temp 80° C., CO2 Loading 0.10 mol/mol alka, 8 m 1-MPZ): 3.66 kPa
PCO2 ([2]; Temp 80° C., CO2 Loading 0.20 mol/mol alka, 8 m 1-MPZ): 25.30 kPa
PCO2 ([2]; Temp 80° C., CO2 Loading […] alka, 8 m 1-MPZ): 10.10 kPa
PCO2 ([2]; Temp 100° C., CO2 Loading 0.10 mol/mol alka, 8 m 1-MPZ): 12.84 kPa
PCO2 ([2]; Temp 100° C., CO2 Loading […] alka, 8 m 1-MPZ): 33.01 kPa
miscibility with water [3]: fully miscible with water
cyclic CO2 capacity ([4]; difference between lean and rich CO2 loading at 500 Pa and 5,000 Pa CO2 partial pressure): 0.83 mol CO2/kg (water+amine)
initial carbon not recovered in the form of the listed products [5]: 21%
first pKa [6]: 9.14
second pKa [6]: 4.63
precipitation when mixing only the amine in water [7]: no precipitation
heat absorption of CO2 ([8]; at 1.5 kPa CO2 partial pressure): 16 kcal/mol

C1CNCCN1.O.O.O.O.O.O [piperazine hexahydrate]
solubility in water [9]: about 2 moles/kg H2O

CC(C)(N)CO [AMP]
CO2 Capacity [4]: 0.96 mol/kg (water + amine)
ΔHabs@PCO2 = 1.5 kPa [8]: 17.4 kcal/mol

CN1CCN(C)CC1 [1,4-DMPZ, 1,4-dimethyl-piperazine]
precipitation when mixing only the amine in water [7]: no precipitation

CC(N)CN (stereo not shown) [1,2-diaminopropane]
solids precipitation ([3]; rich conditions, 8 m): precipitates solids

NCCOCCO [DGA ®]
CO2 Capacity [4]: 0.38 mol/kg (water + amine)
ΔHabs@PCO2 = 1.5 kPa [8]: 19.4 kcal/mol

OCCC1CCCCN1 (stereo not shown) [2-PE]
CO2 Capacity [4]: 1.23 mol/kg (water + amine)
ΔHabs@PCO2 = 1.5 kPa [8]: 17.4 kcal/mol

NCCN1CCNCC1 [AEP]
CO2 Capacity [4]: 0.66 mol/kg (water + amine)
ΔHabs@PCO2 = 1.5 kPa [8]: 17.2 kcal/mol

OCCN1CCNCC1 [HEP]
CO2 Capacity [4]: 0.68 mol/kg (water + amine)
ΔHabs@PCO2 = 1.5 kPa [8]: 16.5 kcal/mol

CC1CNCCN1 (racemic) [2MPZ, 2-methyl piperazine]
absorption/desorption rate (kg′) compared with PZ and MEA ([1]; 0.5 kPa to 5 kPa P*CO2, comparators 7 m MEA and 8 m PZ at 40° C.): between MEA and PZ
solubility over CO2 loading: highly soluble over the full range of CO2 loading
PCO2 ([2]; Temp 40° C., CO2 Loading 0.102 mol/mol alka, 8 m MPZ): 0.01 kPa
PCO2 ([2]; Temp 40° C., CO2 Loading 0.154 mol/mol alka, 8 m MPZ): 0.04 kPa
PCO2 ([2]; Temp 40° C., CO2 Loading 0.203 mol/mol alka, 8 m MPZ): 0.12 kPa
PCO2 ([2]; Temp 40° C., CO2 Loading 0.253 mol/mol alka, 8 m MPZ): 0.32 kPa
PCO2 ([2]; Temp 40° C., CO2 Loading 0.3 mol/mol alka, 8 m MPZ): 0.96 kPa
PCO2 ([2]; Temp 40° C., CO2 Loading 0.365 mol/mol alka, 8 m MPZ): 4.73 kPa
PCO2 ([2]; Temp 60° C., CO2 Loading 0.102 mol/mol alka, 8 m MPZ): 0.09 kPa
PCO2 ([2]; Temp 60° C., CO2 Loading 0.154 mol/mol alka, 8 m MPZ): 0.29 kPa
PCO2 ([2]; Temp 60° C., CO2 Loading 0.203 mol/mol alka, 8 m MPZ): 0.86 kPa
PCO2 ([2]; Temp 60° C., CO2 Loading 0.253 mol/mol alka, 8 m MPZ): 2.26 kPa
PCO2 ([2]; Temp 60° C., CO2 Loading 0.3 mol/mol alka, 8 m MPZ): 4.87 kPa
PCO2 ([2]; Temp 60° C., CO2 Loading 0.365 mol/mol alka, 8 m MPZ): 22.41 kPa
PCO2 ([2]; Temp 80° C., CO2 Loading 0.102 mol/mol alka, 8 m MPZ): 0.59 kPa
PCO2 ([2]; Temp 80° C., CO2 Loading 0.154 mol/mol alka, 8 m MPZ): 1.80 kPa
PCO2 ([2]; Temp 80° C., CO2 Loading 0.203 mol/mol alka, 8 m MPZ): 4.06 kPa
PCO2 ([2]; Temp 80° C., CO2 Loading 0.253 mol/mol alka, 8 m MPZ): 9.72 kPa
PCO2 ([2]; Temp 80° C., CO2 Loading 0.3 mol/mol alka, 8 m MPZ): 22.06 kPa
PCO2 ([2]; Temp 100° C., CO2 Loading 0.102 mol/mol alka, 8 m MPZ): 2.68 kPa
PCO2 ([2]; Temp 100° C., CO2 Loading 0.154 mol/mol alka, 8 m MPZ): 7.39 kPa
PCO2 ([2]; Temp 100° C., CO2 Loading 0.203 mol/mol alka, 8 m MPZ): 18.65 kPa
CO2 Capacity [4]: 0.93 mol/kg (water + amine)
Heat of CO2 absorption (ΔHabs) ([8]; 8 m MPZ, 4 m PZ/4 m MPZ blend, 8 m PZ): 17.2 kcal/mol
ΔHabs@PCO2 = 1.5 kPa [8]: 17.2 kcal/mol

NCCO [MEA, monoethanolamine]
CO2 Capacity [4]: 0.47 mol/kg (water + amine)
ΔHabs@PCO2 = 1.5 kPa [8]: 19.6 kcal/mol
